Test results from paper PMC7717986, “Echinacoside Suppresses Amyloidogenesis and Modulates F-actin Remodeling by Targeting the ER Stress Sensor PERK in a Mouse Model of Alzheimer’s Disease” (Frontiers in Cell and Developmental Biology, 2020).

Columns and labels:
human PERK (hPERK) = molecular target: T1, human PERK (hPERK) (Homo sapiens, UniProt Q9NZJ5); test: microscale thermophoresis (MST) with labeled PERK protein; type: binding
T1 construct: gene EIF2AK3
T1 sequence (Q9NZJ5 30-1116): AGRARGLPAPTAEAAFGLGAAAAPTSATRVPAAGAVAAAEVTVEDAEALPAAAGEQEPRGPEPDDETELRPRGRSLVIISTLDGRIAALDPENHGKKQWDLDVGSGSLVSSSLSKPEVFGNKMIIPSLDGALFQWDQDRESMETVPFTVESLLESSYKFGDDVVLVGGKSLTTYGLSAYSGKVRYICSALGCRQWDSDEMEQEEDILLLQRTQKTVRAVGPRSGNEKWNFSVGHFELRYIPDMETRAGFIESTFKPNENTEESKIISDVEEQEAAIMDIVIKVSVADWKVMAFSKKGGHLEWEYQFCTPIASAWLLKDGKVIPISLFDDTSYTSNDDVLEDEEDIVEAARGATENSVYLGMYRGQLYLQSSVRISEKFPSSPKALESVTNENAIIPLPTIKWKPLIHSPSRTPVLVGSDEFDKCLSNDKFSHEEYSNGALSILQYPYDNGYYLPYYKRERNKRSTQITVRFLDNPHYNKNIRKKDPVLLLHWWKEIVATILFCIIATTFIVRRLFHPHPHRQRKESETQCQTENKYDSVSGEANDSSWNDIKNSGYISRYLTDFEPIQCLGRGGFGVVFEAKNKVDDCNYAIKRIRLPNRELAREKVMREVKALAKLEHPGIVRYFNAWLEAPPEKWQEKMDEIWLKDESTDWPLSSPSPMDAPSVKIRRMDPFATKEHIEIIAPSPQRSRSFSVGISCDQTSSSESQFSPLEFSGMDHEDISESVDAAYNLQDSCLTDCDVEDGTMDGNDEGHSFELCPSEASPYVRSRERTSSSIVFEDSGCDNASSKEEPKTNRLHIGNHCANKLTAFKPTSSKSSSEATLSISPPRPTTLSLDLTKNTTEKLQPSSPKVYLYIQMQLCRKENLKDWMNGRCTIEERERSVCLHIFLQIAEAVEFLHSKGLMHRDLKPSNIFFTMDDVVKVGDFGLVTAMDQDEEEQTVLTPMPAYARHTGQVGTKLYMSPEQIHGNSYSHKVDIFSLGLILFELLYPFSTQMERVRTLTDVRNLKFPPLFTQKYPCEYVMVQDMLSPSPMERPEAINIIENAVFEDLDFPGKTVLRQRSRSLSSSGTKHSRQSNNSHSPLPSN

mouse PERK (mPERK) = molecular target: T2, mouse PERK (mPERK) (Mus musculus, UniProt Q9Z2B5); test: as above; type: binding
T2 construct: gene Eif2ak3
T2 sequence (Q9Z2B5 29-1114): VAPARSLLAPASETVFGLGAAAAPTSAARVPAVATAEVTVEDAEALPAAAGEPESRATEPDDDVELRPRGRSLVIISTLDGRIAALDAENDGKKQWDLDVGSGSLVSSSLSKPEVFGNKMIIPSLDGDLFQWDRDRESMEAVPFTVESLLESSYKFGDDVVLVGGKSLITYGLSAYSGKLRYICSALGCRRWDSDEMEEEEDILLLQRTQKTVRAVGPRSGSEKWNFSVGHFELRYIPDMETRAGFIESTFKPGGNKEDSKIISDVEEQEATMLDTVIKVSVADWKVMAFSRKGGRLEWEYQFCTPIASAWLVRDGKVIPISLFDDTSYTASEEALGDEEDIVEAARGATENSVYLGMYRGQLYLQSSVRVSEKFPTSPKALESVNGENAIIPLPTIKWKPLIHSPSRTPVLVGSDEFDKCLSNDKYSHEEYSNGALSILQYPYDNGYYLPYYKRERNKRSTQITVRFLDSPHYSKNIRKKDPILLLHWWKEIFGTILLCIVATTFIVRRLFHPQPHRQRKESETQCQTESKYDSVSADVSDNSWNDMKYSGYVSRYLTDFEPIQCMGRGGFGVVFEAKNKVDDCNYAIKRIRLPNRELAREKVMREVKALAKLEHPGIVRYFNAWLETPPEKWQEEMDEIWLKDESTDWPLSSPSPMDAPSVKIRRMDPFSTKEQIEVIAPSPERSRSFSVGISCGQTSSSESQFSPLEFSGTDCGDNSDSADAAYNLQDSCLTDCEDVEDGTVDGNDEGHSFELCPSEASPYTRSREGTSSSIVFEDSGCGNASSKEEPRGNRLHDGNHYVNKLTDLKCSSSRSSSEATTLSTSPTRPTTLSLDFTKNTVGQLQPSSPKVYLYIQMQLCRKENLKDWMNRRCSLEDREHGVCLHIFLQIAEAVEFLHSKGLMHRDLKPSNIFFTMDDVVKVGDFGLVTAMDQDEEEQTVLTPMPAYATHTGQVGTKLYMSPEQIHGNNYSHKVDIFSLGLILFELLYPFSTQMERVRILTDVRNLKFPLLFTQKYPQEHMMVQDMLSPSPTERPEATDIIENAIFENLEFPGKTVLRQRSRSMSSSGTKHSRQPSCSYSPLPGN

- Kd (human PERK (hPERK)): 635 ± 74 nM
- Kd (mouse PERK (mPERK)): 851 ± 81 nM
SMILES: C[C@@H]1O[C@@H](O[C@@H]2[C@@H](O)[C@H](OCCc3ccc(O)c(O)c3)O[C@H](CO[C@@H]3O[C@H](CO)[C@@H](O)[C@H](O)[C@H]3O)[C@H]2OC(=O)/C=C/c2ccc(O)c(O)c2)[C@H](O)[C@H](O)[C@H]1O [ECH, Echinacoside]
